Data taken from publication PMC5114558, “Reader domain specificity and lysine demethylase-4 family function” (Nature Communications, 2016).
Positions count from the first letter of the chain named. Entries after “also recorded” stand apart in the source; their conditions may differ.

How the values were obtained:
[1] = biological target: T1, KDM4A DTD (human KDM4A double tudor domain, 895–1011aa) (Homo sapiens, UniProt O75164); assay: fluorescence polarization (FP) binding, KDM4A-DTD wild-type; conditions: matrix Fig. 1d and Fig. 3c, pH 7.4, read-out: binding affinity (Kd), KDM4A DTD wild-type
T1 construct: DNA encoding DTDs (KDM4A 895–1011aa, KDM4B 917–1031aa and KDM4C 877–991aa); (His)6-HaloTag (pFN29) or (His)6 (pET28b); made in house; host or cells: Escherichia coli BL21 (DE3)
T1 sequence (O75164 895-1011): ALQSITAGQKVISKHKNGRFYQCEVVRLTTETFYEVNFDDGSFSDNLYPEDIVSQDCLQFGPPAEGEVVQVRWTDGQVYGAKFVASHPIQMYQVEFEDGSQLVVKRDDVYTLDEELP
Source text: (§1) KDM4 protein sequences used in this study correspond to Uniprot ID: O75164 (human KDM4A, isoform 1), O94953 (human KDM4B, isoform1) and Q9H3R0 (human KDM4C, isoform1). Plasmid encoding KDM4A DTD was kindly provided by R-M Xu (Chinese Academy of Sciences). Complementary DNA encoding human KDM4B-DTD was synthesized (Integrated DNA Technologies). Plasmid containing cDNA of full-length KDM4C (clone ID: HsCD00341594) was obtained from Harvard Plasmid Repository. DNA encoding DTDs (KDM4A 895–1011aa, KDM4B 917–1031aa and KDM4C 877–991aa) were cloned into pFN29 (Promega) with N-terminal (His)6-HaloTag or pET28b with N-terminal (His)6 Tag using In-Fusion HD cloning kit (Clontech). Plasmids encoding Xenopus laevis core histones were a generous gift of K. Luger (University of Colorado-Boulder). Site-directed mutagenesis was performed with Q5 Site-Directed Mutagenesis Kit (New England Biolabs).
(§2) Peptide sequences are given in Supplementary Table 1. […] A no-protein control with only peptide probe was included. Polarization at each concentration was measured as triplicates in 384-well polystyrene black microplates (Thermo Fisher Scientific 262260) by Biotek Synergy H4 multimode plate reader (light source: xenon flash, offset from top: 7 mm, sensitivity: 60%, excitation: 485/20 nm, emission: 528/20 nm, both parallel and perpendicular, normal read speed). Fraction bound (Fb) at each concentration was calculated based on the corresponding polarization values (P): Fbc=(Pc−Pmin)/(Pmax−Pmin), where Pmin is the polarization value of no-protein control and Pmax is the polarization value of the saturation value for that peptide. Dissociation constants (Kd) were derived by KaleidaGraph, Synergy Software (version 4.1.3) using the following equation: Fb=[protein]/([protein]+Kd).

KDM4B N960A = biological target: T2, KDM4B N960A (Homo sapiens, UniProt O94953, N960A); assay: FP binding, KDM4B-DTD N960A; conditions: pH 7.4, Fig. 4g (± s.d., three replicates) and text
T2 construct: DNA encoding DTDs (KDM4A 895–1011aa, KDM4B 917–1031aa and KDM4C 877–991aa); (His)6-HaloTag (pFN29) or (His)6 (pET28b); made in house; host or cells: Escherichia coli BL21 (DE3)
T2 sequence (O94953 917-1031 N960A): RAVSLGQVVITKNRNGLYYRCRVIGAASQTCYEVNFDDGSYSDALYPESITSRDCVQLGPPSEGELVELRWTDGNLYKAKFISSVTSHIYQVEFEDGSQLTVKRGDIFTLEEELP
Source text: as §1, with “Plasmids encoding Xenopus laevis core histones were a generous gift of K. Luger (University of Colorado-Boulder). Site-directed mutagenesis was performed with Q5 Site-Directed Mutagenesis Kit (New England Biolabs).” left out
(§3) Peptide sequences are given in Supplementary Table 1. […] Polarization at each concentration was measured as triplicates in 384-well polystyrene black microplates (Thermo Fisher Scientific 262260) by Biotek Synergy H4 multimode plate reader (light source: xenon flash, offset from top: 7 mm, sensitivity: 60%, excitation: 485/20 nm, emission: 528/20 nm, both parallel and perpendicular, normal read speed). Fraction bound (Fb) at each concentration was calculated based on the corresponding polarization values (P): Fbc=(Pc−Pmin)/(Pmax−Pmin), where Pmin is the polarization value of no-protein control and Pmax is the polarization value of the saturation value for that peptide. […]

KDM4B S965D = biological target: T3, KDM4B S965D (Homo sapiens, UniProt O94953, S965D); assay: FP binding, KDM4B-DTD S965D; conditions: pH 7.4, Fig. 4i (± s.d., three replicates) and text
T3 construct: DNA encoding DTDs (KDM4A 895–1011aa, KDM4B 917–1031aa and KDM4C 877–991aa); (His)6-HaloTag (pFN29) or (His)6 (pET28b); made in house; host or cells: Escherichia coli BL21 (DE3)
T3 sequence (O94953 917-1031 S965D): T2 sequence (O94953 917-1031 N960A) with A44N, S49D
Source text: as §1, with “Plasmids encoding Xenopus laevis core histones were a generous gift of K. Luger (University of Colorado-Boulder). Site-directed mutagenesis was performed with Q5 Site-Directed Mutagenesis Kit (New England Biolabs).” left out
as §3

[2] = biological target: T4, KDM4B DTD (human KDM4B double tudor domain, 917–1031aa) (Homo sapiens, UniProt O94953); assay: fluorescence polarization (FP) binding, KDM4B-DTD wild-type; conditions: matrix Fig. 1d, values given in mM, pH 7.4, read-out: binding affinity (Kd), KDM4B DTD
T4 construct: DNA encoding DTDs (KDM4A 895–1011aa, KDM4B 917–1031aa and KDM4C 877–991aa); (His)6-HaloTag (pFN29) or (His)6 (pET28b); made in house; host or cells: Escherichia coli BL21 (DE3)
T4 sequence (O94953 917-1031): T2 sequence (O94953 917-1031 N960A) with A44N
Source text: as §1, §2

KDM4A full-length = assay: MS-based demethylation assay, 1:1 substrate competition, full-length KDM4A; type: biochemical, human; conditions: 1:1 (5 μM:5 μM) H3K36me3 and H3K23me3K36me3, MS; Supplementary Fig. 7d-e
Protocol: (§4) In a typical demethylase reaction, the assay mixture containing 50 mM Tris pH 7.5, 50 mM NaCl, 50 μM (NH4)2Fe(SO4)2, 0.5 mM ascorbic acid, 1 mM α-ketoglutarate and 0.2 μM full-length KDM4A–C (Active Motif) was mixed with 5–10 μM of trimethylated histone peptides (detailed sequence information in Supplementary Table 1). Each peptide concentration was quantified by measuring Abs280nm for peptides containing either tryptophan or tyrosine residue. After incubation of assay mixture at 25 °C for 10, 30 and 60 min time point, 10 μl of aliquot was transferred to a clean tube containing 5 μl of 5% formic acid to quench the reaction. Each quenched sample was treated with standard StageTip protocol using C18 extraction disk (Model 2215, Empore, 3 M) to remove excess salts and detergents in the reaction mixture. Each eluate from StageTip containing peptides was dried at a reduced pressure (vacuum centrifuge) and was re-suspended with 10 μl of 5% acetonitrile solution (0.1% formic acid). The 1 μl of the sample was injected at 0.7 μl min^−1 flow rate onto a Dionex Ultimate 3000 Nano LC system equipped with Atlantis dC18 NanoEase reverse-phase column (3 μm, 100 μm × 150 mm, Waters) and coupled to a hybrid quadrupole-orbitrap MS (Q-Exactive, Thermo Scientific). The peptide was eluted at 4–15 min retention time with a linear gradient of 2–35% acetonitrile (0.1% formic acid). […]

KDM4C full-length = assay: MS-based demethylation assay, 1:1 substrate competition, full-length KDM4C; type: biochemical, human; conditions: 1:1 (5 μM:5 μM) H3K36me3 and H3K23me3K36me3, MS; Supplementary Fig. 7d-e
Protocol: as §4

[3] = test system: KDM4B full-length protein; assay: MS-based demethylation assay, full-length KDM4B; type: biochemical, human; conditions: 0.2 μM enzyme, 5–10 μM peptide, pH 7.5, 25 °C, MS read-out, single peptide substrates, Fig. 6a,b
Protocol: In a typical demethylase reaction, the assay mixture containing 50 mM Tris pH 7.5, 50 mM NaCl, 50 μM (NH4)2Fe(SO4)2, 0.5 mM ascorbic acid, 1 mM α-ketoglutarate and 0.2 μM full-length KDM4A–C (Active Motif) was mixed with 5–10 μM of trimethylated histone peptides (detailed sequence information in Supplementary Table 1). Each peptide concentration was quantified by measuring Abs280nm for peptides containing either tryptophan or tyrosine residue. After incubation of assay mixture at 25 °C for 10, 30 and 60 min time point, 10 μl of aliquot was transferred to a clean tube containing 5 μl of 5% formic acid to quench the reaction. Each quenched sample was treated with standard StageTip protocol using C18 extraction disk (Model 2215, Empore, 3 M) to remove excess salts and detergents in the reaction mixture. Each eluate from StageTip containing peptides was dried at a reduced pressure (vacuum centrifuge) and was re-suspended with 10 μl of 5% acetonitrile solution (0.1% formic acid). The 1 μl of the sample was injected at 0.7 μl min^−1 flow rate onto a Dionex Ultimate 3000 Nano LC system equipped with Atlantis dC18 NanoEase reverse-phase column (3 μm, 100 μm × 150 mm, Waters) and coupled to a hybrid quadrupole-orbitrap MS (Q-Exactive, Thermo Scientific). The peptide was eluted at 4–15 min retention time with a linear gradient of 2–35% acetonitrile (0.1% formic acid). All the solvents used for liquid chromatography MS were HPLC grade (Fisher). For each analysis, MS1 scan range of 300–1,100 m/z was used and data-dependent MS/MS was obtained to identify the site of demethylation. Each peptide peak and its area integration was performed on the XCalibur Qual Browser.

[4] = test system: KDM4B full-length protein; assay: MS-based demethylation assay, 1:1 substrate competition, full-length KDM4B; type: biochemical, human; conditions: 1:1 (5 μM:5 μM) H3K36me3 and H3K23me3K36me3, 25 °C, P<0.01 (Fig. 6c)
Protocol: as §4

Kd [1] [µM]	Kd (KDM4B N960A) [µM]	Kd (KDM4B S965D) [µM]	Kd [2] [mM]	Compound	preferential demethylation by KDM4A in 1:1 mixture (KDM4A full-length)	preferential demethylation by KDM4C in 1:1 mixture (KDM4C full-length)	demethylation by full-length KDM4B [3]	demethylation by full-length KDM4B ([3]; listed as H3(20–42)K23me3K36me3)	preferential demethylation by KDM4B in 1:1 mixture [4]
2.7	304 ± 35.8	199 ± 16.1	> 3	C[C@H](N)C(=O)N[C@@H](CCCNC(=N)N)C(=O)N[C@H](C(=O)N[C@@H](CCCC[N+](C)(C)C)C(=O)N[C@@H](CCC(N)=O)C(=O)N[C@H](C(=O)N[C@@H](C)C(=O)N[C@@H](CCCNC(=N)N)C(=O)N[C@@H](CCCCN)C(=O)N[C@@H](CO)C(=O)N[C@H](C(=O)NCC(=O)NCC(=O)N[C@@H](CCCCNC(=O)c1ccc2c(c1)C(=O)OC21c2ccc(O)cc2Oc2cc(O)ccc21)C(=O)O)[C@@H](C)O)[C@@H](C)O)[C@@H](C)O [H3K4me3]					
				H3K23me3K36me3: demethylation assay peptide, Tufts University Core Facility	preferentially demethylates dually modified peptide; also recorded: enhanced for KDM4A and KDM4B but not KDM4C	not KDM4C	faster rates of H3K36me2 and H3K36me1 product formation	increases H3K36me3 conversion to H3K36me1/2	preferentially demethylates dually modified peptide; also recorded: preferentially demethylate H3K36me3 in the context of dually modified peptide
